From US20110306638A1, “BENZISOXAZOLE PIPERIDINYL DERIVATIVES, PHARMACEUTICAL COMPOSITIONS COMPRISING THE DERIVATIVES AND THEIR USE” (NHWA PHARMA. CORPORATION, priority 2008, published 2011)
Marks after values point to notes of the source that are not given here.

Key:
Kunming mice = test: Acetic acid-induced abdominal writhing test in mice; type: in vivo
Protocol: Kunming mice, SPF KM mice purchased from […] SLAC LABORATORY ANIMAL CO. LTD and kept in normal environment.
The compounds were dissolved in water for injection at a concentration of 4 mg/ml, 2 mg/ml and 1 mg/ml and were given intragastrically to animals.
Three different doses (10, 20, and 40 mg/kg) were administered to the test groups.
Aspirin was used as a positive control and acetic acid writhing test was used.
30 mice (half male and half female) weighing 18-23 g were divided into five groups, including negative control group, positive control group, low dose group, medium dose group and high dose group:
Mice in test group received test drug (10 mg/kg, 20 mg/kg, 40 mg/kg) via intragastric administration. Negative control group received physiological saline (20 ml/kg) via oral administration. Positive control group received aspirin (200 mg/kg) via oral administration. One hour later, each group received 0.7% acetic acid 10 ml/kg intraperitoneally. Five minutes later, the number of writhes was counted within the subsequent 15 min period; inhibition percentage of writhing response in each test group was calculated by the following equation: […]

[1] = system: Salmonella typhimurium histidine auxotroph mutants TA97, TA98, TA100 and TA102; test: Bacterial reverse mutation test (Ames test); type: cell-based; conditions: 5-5000 μg/plate, −S9 and +S9
Protocol: Bacterial reverse mutation test on compound I-20 was performed on Salmonella typhimurium histidine auxotroph mutants TA97, TA98, TA100 and TA102 (purchased from MolTox company) using conventional procedures of Ames test.
Observation period: colony counting was done 48 hours after cultivation at 37° C.
Drug solutions with different concentrations were prepared with double distilled water, and the doses were 5, 50, 500, 1000, 5000 μg/plate.
Direct effect of the test drug in the absence of metabolic activity was determined by standard plate incorporation assay. The composition of the test top layer was: 2.0 ml top layer, 0.1 ml drug solution, 0.1 ml bacteria solution and 0.5 ml phosphate buffer.
Pre-incubation was used in the determination of the drug's mutagenic effect in the presence of metabolic activity. The composition of the test top layer is: 2.0 ml top layer, 0.1 ml drug solution, 0.1 ml bacteria solution and 0.5 ml S9 mix.
The resulting drug solution, bacterial solution and S9 mix were first incubated at 35° C. for 30 min while shaking, and then tested according to standard plate incorporation assay. Each dose was tested in three plates, each mutant was tested in the absence or presence of metabolic activity (−S9 or +S9) and repeated twice, the number of revertant colonies was calculated as x±SD.

N#Cc1ccc2ccn(CCCCN3CCC(c4noc5cc(F)ccc45)CC3)c2c1 [II-9, 1-(4-(4-(6-fluorobenzo[d]isoxazol-3-yl)piperidin-1-yl)butyl)-1H-indole-6-carbonitrile]
Inhibition percentage of writhing response (Kunming mice; 10 mg/kg intragastric administration): 100** % | Inhibition percentage of writhing response (Kunming mice; 20 mg/kg intragastric administration): 99.05* % | Inhibition percentage of writhing response (Kunming mice; 40 mg/kg intragastric administration): 100** % | Ames test result [1]: negative
